The source of these data is publication PMC4682813, “The Aminosteroid Derivative RM-133 Shows In Vitro and In Vivo Antitumor Activity in Human Ovarian and Pancreatic Cancers” (PLoS ONE, 2015).

For series [1] the following is noted: mouse, in vivo.
Description: Ten ♀ Balb/c mice weighing approximately 23 g were separated in 3 groups. […] Mice in groups 1 and 2 received a total of 8 injections over 4 days and were sacrificed on day 8. Mice behavior was monitored during the whole duration of the experiment, and macroscopic observation of organs was performed upon necropsy.
The next series concerns CYP3A4. Further details: method as in PMID 25300820. The note with it: low to moderate risk of drug-drug interactions; cited from earlier work.
Series [2] in a line: Plasma concentration of RM-133 with different vehicles. Format: in vivo, Balb/c mice. The note with it: female, Balb/c, mouse, sc, 120 mg/kg, single s.c. 120 mg/kg in 0.1 mL.
Series [3] concerns OVCAR-3 tumors xenografted in nu/nu nude mice. Description: OVCAR-3 xenografts in nude mice, propylene glycol-based vehicle (first part). Format: in vivo. The note with it: 60 mg/kg s.c. daily, propylene glycol:EtOH (92:8). The text has this: All in vivo experiments were approved by our Institutional Animal Care and Use Committee (Comités de protection des animaux de l’Université Laval) and carried out according to the guidelines of the Canadian Council on Animal Care. For xenografts, homozygous ♀ nu/nu nude mice (24–42 days old) were purchased from Charles River Inc. (Saint-Constant, QC, Canada) and housed (four to five) in vinyl micro-isolated ventilated cages, equipped with air lids, which were kept in laminar airflow hoods and maintained under pathogen-limiting conditions. During the acclimatization and study period, the animals were housed under a controlled environment at 22 ± 3°C, with 50 ± 20% relative humidity and light set at 12 h/day (light on at 07:15). Rodent food (Rodent diet #T.2018.15, Harlan Teklad, Madison, WI) and water were provided ad libitum. For nu/nu nude mice, food and water were sterilized prior to dispensing to the animals. Standard Balb/c mice were used for pharmacokinetic studies. Animals were anesthetized with isoflurane and killed by cervical dislocation.
Twenty-two ♀ nu/nu nude mice (22–24 g) were inoculated s.c. with 5×10^6 OVCAR-3 cells (in 0.1 mL of growth medium containing 30% Matrigel (BD Biosciences, Bedford, MA)) into both flanks in each mouse via a 2.5-cm long 22-gauge needle. After 11 days, tumor-bearing mice were randomly assigned to two groups of 11 mice each according to tumor size, i.e. a control group (n = 12 tumors) and a treated group (n = 15 tumors). RM-133 was administered s.c. daily at 60 mg/kg in 0.1 mL of propylene glycol:EtOH (92:8). Animals in the control group received 0.1 mL of vehicle alone. Tumor size was measured twice weekly using a caliper. Two perpendicular diameters (L and W) were measured, and the tumor area (in mm^2) was calculated using the formula (L/2) x (W/2) x π. Animals were weighed at various intervals during the experiment.

The nature of series [4]: Plasma concentration of RM-133 with different vehicles. Particulars: female, Balb/c, mouse, sc, 120 mg/kg, single s.c. 120 mg/kg in 0.1 mL. Format: in vivo, Balb/c mice. The text has this:
Eleven different vehicles were investigated by s.c. injection. These vehicles were formulated as follows: vehicle #1 [propylene glycol:EtOH (92:8)]; vehicle #2 [aqueous 0.4% methylcellulose:EtOH (92:8)]; vehicle #3 [castor oil:EtOH:benzyl alcohol:benzyl benzoate (65:10:10:15)]; vehicle #4 [sunflower oil:EtOH (92:8)]; vehicle #5 [sunflower oil:tetrahydrofuran (92:8)]; vehicle #6 [aqueous 25% β-cyclodextrin:EtOH (92:8)]; vehicle #7 [sesame oil:EtOH:benzyl benzoate:benzyl alcohol:Tween 80 (89.8:7.8:1:1:0.5)]; vehicle #8 [soya oil:EtOH (92:8)]; vehicle #9 [RPMI medium:EtOH (92:8)]; vehicle #10 [saline:dimethyl sulfoxide (DMSO):Tween 80 (89.5:10:0.5)]; and vehicle #11 [saline:benzyl alcohol:carboxymethylcellulose:Tween 80 (98.2:0.9:0.5:0.4)]. The eight vehicles producing the best RM-133 solubility (#1–8) were injected s.c. (0.1 mL) without the test compound (RM-133) for tolerance and behavioral evaluation studies, by observing mice at 0.25, 1, 3, 7, 23, 26, 28, 30, and 96 h post-injection. Finally, RM-133 was injected s.c. once at 120 mg/kg/0.1 mL of the best […] tolerated vehicles (#1,2,4–7) into ♀ Balb/c mice (4 per group), and mice were next monitored with blood collection by cardiac puncture after 3 and 12 h. The plasma concentration of RM-133 was then determined by LC-MS/MS as above.
This is another data set of the same source.

Another series deals with CYP2D6. Further details: method as in PMID 25300820. The note with it: low to moderate risk of drug-drug interactions; cited from earlier work.
The mark [5] stands for this setting: vehicle #7 sesame oil (89.7%) EtOH (7.8%) benzyl benzoate (1%) benzyl alcohol (1%) Tween 80 (0.5%).
Setting [6] is: vehicle #8 soya oil (92%) EtOH (8%).
The mark [7] stands for this setting: vehicle #1 propylene glycol (92%) EtOH (8%).
[8] abbreviates: vehicle #2 aqueous 0.4% methylcellulose (92%) EtOH (8%).
The mark [9] stands for this setting: vehicle #4 sunflower oil (92%) EtOH (8%).
Setting [10] is: vehicle #5 sunflower oil (92%) tetrahydrofuran (8%).
Where [11] appears, read: vehicle #6 aqueous 25% β-cyclodextrin (92%) EtOH (8%).

Like-named read-outs stand apart in the source and are kept apart here.

For the molecule `C#C[C@]1(O)CC[C@H]2[C@@H]3CC[C@H]4C[C@H](O)[C@@H](N5CCN(C(=O)[C@@H]6CCCN6C(=O)c6ccc7ccccc7n6)CC5)C[C@]4(C)[C@H]3CC[C@@]21C` [RM-133], in series [1] (female, Balb/c, 24 h), the “mice with slightly enlarged kidneys at necropsy” value is 75%. Besides, the “adverse effect on mice” value in series [1] (120 mg/kg) and in series [1] (240 mg/kg) was “no adverse effect” in each case. The “macroscopic observation of organs at necropsy” value in series [1] (sc) is given as “organs did not show any detectable abnormality”. Besides, the “inhibition of CYP3A4” value with CYP3A4 is recorded as “weak inhibition”. For the same molecule, the concentration at 3 h in series [2] (setting [5]) was determined as 302 ± 7 ng/mL; in series [2] (setting [6]), 137 ± 2 ng/mL; in series [4] (setting [7]), 314 ± 2 ng/mL; in series [4] (setting [8]), 449 ± 5 ng/mL; in series [4] (setting [9]) it was 285 ± 5 ng/mL; in series [4] (setting [10]) it was 642 ± 20 ng/mL. Also, in series [4] (setting [11]), the concentration at 3 h is 2960 ± 121 ng/mL. The concentration at 12 h in series [2] (setting [5]) worked out at 214 ± 8 ng/mL; in series [2] (setting [6]), 52 ± 1 ng/mL; in series [4] (setting [7]) it was 189 ± 5 ng/mL; in series [4] (setting [8]), 171 ± 10 ng/mL; in series [4] (setting [9]), 173 ± 6 ng/mL; in series [4] (setting [10]), 374 ± 9 ng/mL. In series [4] (setting [11]), this molecule gave a concentration at 12 h of 1780 ± 47 ng/mL. For the same molecule, the “effect on body weight” value in series [3] (21-day treatment) is “no apparent effect on body weight”. Also, the “day from which treated tumors were significantly smaller than control” value in series [3] was 15 days. Further, in series [3] (end of treatment (21 days)), the “difference in tumor size between treated and control groups (tumor growth inhibition)” value is 60%. In addition, the “inhibition of CYP2D6” value in the series on CYP2D6 is on record as “weak inhibition”.
